Measured values published in EP0364819A2, “LHRH analogs” (The Administrators of The Tulane Educational Fund, priority 1988, dated 1990).

Columns and labels:
[1] = target: T1, membrane receptors of rat pituitary (Rattus norvegicus, UniProt P30969); experiment: Receptor binding to rat pituitary membranes with 125I-labeled [D-Trp6]LHRH; details: high affinity binding sites, pituitary of male rats, ¹²⁵l-labeled [D-Trp⁶]LHRH
T1 construct: membrane receptors of rat pituitary; from tissue; host or cells: rat pituitary membranes
T1 sequence (P30969 1-327): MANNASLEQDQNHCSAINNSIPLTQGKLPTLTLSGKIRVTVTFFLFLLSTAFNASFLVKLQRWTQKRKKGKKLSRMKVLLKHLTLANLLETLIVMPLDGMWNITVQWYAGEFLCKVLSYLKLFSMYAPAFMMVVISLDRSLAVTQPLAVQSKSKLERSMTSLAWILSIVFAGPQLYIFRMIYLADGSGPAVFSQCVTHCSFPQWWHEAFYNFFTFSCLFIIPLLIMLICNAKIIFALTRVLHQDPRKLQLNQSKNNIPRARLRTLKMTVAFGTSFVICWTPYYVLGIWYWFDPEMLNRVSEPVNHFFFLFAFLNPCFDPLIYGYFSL
Experimental: (§1) This is determined by using labelled LHRH and [D-Trp⁶]LHRH. The assay is carried out similarly to that described by T. Kadar et al., Proc. Natl. Acad. Sci. USA, 85, 890-894 (1988).
(§2) Table 2 presents the antiovulatory activity of the claimed compounds having LHRH-inhibiting properties. The inhibitory action was determined in vivo, in 4-day cycling rats as described [A. Corbin and C. W. Beattie, Endocr. Res. Commun., 2, 1-23 (1975)]. Affinities of the claimed compounds to membrane receptors of rat pituitary and human breast cancer cells are also given in Tables 1 and 2 as determined by using [[…],D-Trp⁶]LHRH.

[2] = target: T2, membrane receptors of human breast cancer cells (Homo sapiens, UniProt P30968); experiment: Receptor binding to human breast cancer cell membranes with 125I-labeled [D-Trp6]LHRH; details: high affinity binding sites, ¹²⁵l-labeled [D-Trp⁶]LHRH
T2 construct: human prostate and breast cancer cell membranes; endogenous in cells
T2 sequence (P30968 1-328): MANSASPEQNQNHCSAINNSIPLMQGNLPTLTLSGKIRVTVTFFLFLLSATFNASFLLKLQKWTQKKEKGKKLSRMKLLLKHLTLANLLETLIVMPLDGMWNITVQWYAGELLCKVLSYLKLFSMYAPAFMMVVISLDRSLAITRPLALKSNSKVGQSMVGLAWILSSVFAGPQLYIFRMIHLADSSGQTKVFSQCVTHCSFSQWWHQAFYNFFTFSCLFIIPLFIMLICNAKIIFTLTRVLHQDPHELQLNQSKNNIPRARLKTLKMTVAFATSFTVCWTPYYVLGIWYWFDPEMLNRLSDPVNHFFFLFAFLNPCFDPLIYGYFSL
Experimental: (c)Affinity for peptides to human prostate and breast cancer cell membranes.
as §1, §2

[3] = system: 4-day cycling rats; experiment: In vivo antiovulatory activity in 4-day cycling rats; details: Dose 10 µg/rat; 4-day cyclic rats
Experimental: This activity of the peptides is determined in 4-day-cycling rats as described [A. Corbin and C. W.Beattie, Endocr. Res. Commun. 2, 1-23(1975)].
as §2

[4] = system: dispersed rat pituitary cell superfusion system; experiment: LH release in dispersed rat pituitary cell superfusion system (LHRH agonistic activity); format: cell-based; details: peptide infused for 3 minutes at various concentration; LH released compared to that released by 3 nM LHRH
Experimental: The ability of compounds to influence LH release in vitro is assayed by using a superfused rat pituitary cell system [S. Vigh and A. V. Schally, Peptides, 5 Suppl.
The peptide was infused for 3 minutes at various concentration, and the amount of LH released was compared to that released by 3 nM LHRH.

[5] = Table 2, antagonistic analogues

Row | Substance | Binding affinity, Ka1, for membrane receptors of pituitary [1, 5] [nM-¹] | Binding affinity, Ka1, for membrane receptors of cancer cells [2, 5] [nM-¹] | Hormonal activity* %Blockade of ovulation [3] [%] | Hormonal activity* LH responses rel. to LHRH (= 1) [4] | Binding affinity, Ka1, for membrane receptors of pituitary ([1]; Table 1, agonistic analogues) [nM⁻¹] | Binding affinity, Ka1, for membrane receptors of cancer cells ([2]; Table 1, agonistic analogues) [nM⁻¹]
1 | Ac-D-Nal(2)-D-Phe(4Cl)-D-Trp-Ser-Arg-D-Lys[(Cu⁺⁺) (POL)₂(DL-A₂pr)]-Leu-Arg-Pro-D-Ala-NH₂ [Example XXIII] | 7.622 | 3.408 | 40 | – | – | –
2 | pGlu-His-Trp-Ser-Tyr-D-Lys[(Ni⁺⁺)(SAL) 2(A₂pr)]-Leu-Arg-Pro-Gly-NH₂ [VIIIA] | – | – | – | 12 | 9.710 | 5.234
3 | Ac-D-Nal(2)D-Phe(4Cl)-D-Pal(3)-Ser-Arg-D-Lys[(Ni⁺⁺)(SAL)₂(DL-A₂pr)]-Leu-Arg-Pro-D-Ala-NH₂ [XIII] | 1.821 | 0.878 | – | – | – | –
4 | pGlu-His-Trp-Ser-Tyr-D-Lys[(PtCl₂)(DL-A₂pr)]-Leu-Arg-Pro-Gly-NH₂ [Example III] | – | – | – | 55 | 3.285 | 1.743
5 | Ac-D-Nal(2)-D-Phe(4Cl)-D-Trp-Ser-Arg-D-Lys[(Cu⁺⁺)(POLP)₂(DL-A₂pr)]-Leu-Arg-Pro-D-Ala-NH₂ [Example XXII] | 2.901 | 1.337 | 60 | – | – | –
6 | pGlu-His-Trp-Ser-Tyr-D-Lys[(Cu⁺⁺)(PEN) ₂(A₂pr)]-Leu-Arg-Pro-Gly-NH₂ [Example XXI] | – | – | – | 10.6 | 10.989 | 5.096
7 | pGlu-His-Trp-Ser-Tyr-D-Lys[(Cu⁺⁺)(SAL)₂(DL-A₂bu)]-Leu-Arg-Pro-Gly-NH₂ [XIV] | – | – | – | 25 | 5.589 | 1.628
8 | pGlu-His-Trp-Ser-Tyr-D-Lys[(Ni⁺⁺)(SAL)₂(D-A₂pr)]-Leu-Arg-Pro-Gly-NH₂ [VIIIB] | – | – | – | 10 | 6.457 | 3.334
9 | pGlu-His-Trp-Ser-Tyr-D-Lys[(Cu⁺⁺)(POL)₂(DL-A₂bu)]-Leu-Arg-Pro-Gly-NH₂ [XXV] | – | – | – | 5.5 | 6.405 | 3.141
10 | Ac-D-Nal(2)-D-Phe(4Cl)-D-Pal(3)-Ser-Arg-D-Lys[(Cu⁺⁺)(SAL)₂(A₂bu-Eac)]-Leu-Arg-Pro-D-Ala-NH₂ [XXVIII] | – | 0.192 | – | – | – | –
